Where two headings read alike, the source gives them in different places.
Key:
AR-TIF2 PPI = target: T1, AR-TIF2 PPI (Homo sapiens, UniProt P10275); test: AR-TIF2 PPIB HCS assay: disruption of preformed DHT-induced AR-TIF2 PPI complexes (DHT then compound); assay type: cell-based; conditions: U-2 OS cells
T1 construct: AR-LBD residues (662-919) were incorporated into one biosensor; expressed in transfected cells; host or cells: U-2 OS osteosarcoma cells, coinfected with recombinant adenoviruses
T1 sequence (P10275 662-919): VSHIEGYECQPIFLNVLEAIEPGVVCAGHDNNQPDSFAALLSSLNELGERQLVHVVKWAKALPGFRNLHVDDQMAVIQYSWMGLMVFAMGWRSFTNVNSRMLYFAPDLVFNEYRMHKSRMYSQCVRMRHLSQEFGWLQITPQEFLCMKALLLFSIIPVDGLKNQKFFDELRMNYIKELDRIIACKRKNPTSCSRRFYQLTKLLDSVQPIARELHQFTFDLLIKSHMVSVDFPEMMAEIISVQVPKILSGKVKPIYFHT
Protocol: AR-TIF2 Protein-Protein Interaction Biosensor Assay: The AR-TIF2 PPIB HCS assay was performed in U-2 OS osteosarcoma cells as described previously (Fancher et al., Assay Drug Dev Technol. 2016, 14:453-477; Fancher et al., Assay Drug Dev Technol. 2018, 16:297-319; Hua et al., Assay Drug Dev Technol. 2014, 12:395-418; Hua et al., Methods Mol Biol. 2018, 1683:211-227). Briefly, U-2 OS cells were coinfected with recombinant adenovirus biosensor expression constructs and seeded at 2,500 cells per well in 384-well collagen-coated microplates (Greiner Bio-One #781956) and plates were incubated overnight at 37° C. in 5% CO2 and 95% humidity. […] After the appropriate time, assay plates were fixed by transfer of 50 μL of pre-warmed (37° C.) 7.4% formaldehyde and 2 μg/mL Hoechst 33342 in PBS and incubation at room temperature for 30 minutes. Liquid was aspirated, plates were washed twice with 85 μL PBS, leaving the final wash in the plate. Plates were sealed with adhesive aluminum plate seals, and fluorescent images of three fields of view were acquired in the DAPI (Hoechst stained nuclei), FITC (TIF2-GFP) and Texas Red (AR-RFP) channels on an ImageXpress® Micro (IXM) automated HCS platform (Molecular Devices LLC, Sunnyvale, CA) using a 10× Plan Fluor 0.3 NA objective. Images were analyzed using the Translocation Enhanced (TE) image analysis module of the MetaXpress® software (Molecular Devices, LLC, San Jose, CA) as described previously (Fancher et al., Assay Drug Dev Technol. 2016, 14:453-477; Fancher et al., Assay Drug Dev Technol. 2018, 16:297-319; Hua et al., Assay Drug Dev Technol. 2014, 12:395-418; Hua et al., Methods Mol Biol. 2018, 1683:211-227).
For the 96-well AR-LBD H^3-DHT radioligand binding assay, eight minimum and maximum plate control wells were utilized to normalize the data. For the PC cell line growth inhibition assays the DMSO control data from the TO and T72 assay plates was used to assess the dynamic range of the T0 to T72 cell growth, and to calculate S:B ratios and Z′-factor coefficient statistics for the assay signal window (T0 to T72). To normalize the 72 h compound exposure PC growth inhibition data, the signals from the compound treated wells were processed and expressed as % of the T72 DMSO plate controls. IC50 and GI50 values for each of the bioassays were calculated using GraphPad Prism 9 software to plot and fit data to curves using the Sigmoidal dose response variable slope equation Y=Bottom+[Top-Bottom]/[1+10^(Log EC50−X)*HillSlope].
A positional AR-TFI2 protein-protein interaction biosensor (PPIB) assay was used to identify small molecules that inhibited DHT-induced formation of AR-TIF2 PPIs and/or disrupted pre-existing AR-TIF2 PPIs (Fancher et al., Assay Drug Dev Technol 2016, 14(8):453-477; Fancher et al., Assay Drug Dev Technol 2018, 16(6):297-319; Hua et al., Assay Drug Dev Technol 2014, 12:395-418; Hua et al., Methods Mol biol 2018, 1683:211-227). AR-LBD residues (662-919) were incorporated into one biosensor and TIF2 residues (725-840) containing the 3rd NR box LXXLL motif into the second interacting biosensor partner (Id.) The AR-TIF2 PPIB recapitulates the orthosteric ligand (OSL)-induced translocation of AR from the cytoplasm into the nucleus where PPIs with TIF2 result in colocalization of both biosensors in the nucleolus. Using three libraries, a total of 143,535 compounds were screened—a 10,000-compound ChemDiv PPI focused diversity library, a 50,000-compound ChemBridge diversity library, and a 83,535-compound library provided by the NCI's Chemical Biology Consortium. The 10K and 50K diversity libraries were subsets of 142K and 810K parent libraries, enabling screening of a representative subset of >1×10^6 compounds. AR-TIF2 PPI inhibitor and disruptor actives were confirmed in the HCS assay and counter screens designed to identify and exclude nuisance/interference or non-selective compounds (Fancher et al., Assay Drug Dev Technol 2018, 16(6):297-319). […]

[1] = GI50 given in Tables 4-6 (test not described); assay type: cell-based; conditions: cell line not stated
[2] = 25 nM DHT, read-out: Disruption of DHT-induced AR-TIF2 PPIs IC50
[3] = DHT then compound, read-out: D then C IC50

Q: With `Cc1ccccc1-c1cc(O)c2c(c1)CN(c1nc(C(N)=O)cs1)CCO2` [Compound S1-1] as the compound, how does the IC50 (AR-TIF2 PPI; [2]) read?
A: 24.8 µM

Q: What about the GI50 [1] of the same compound?
A: > 100 µM

Q: With `Cc1c(-c2ccccc2F)[nH]c2ccc(CNC(=O)CCc3cn[nH]c3)cc12` [Compound S3-11] as the compound, how does the IC50 (AR-TIF2 PPI; [2]) read?
A: 26.1 µM

Q: What about the GI50 [1] of the same compound?
A: > 100 µM

Q: With `Cc1ccccc1-c1cc(O)c2c(c1)CN(c1cc(N)ncn1)CCO2` [Compound S1-4] as the compound, how does the IC50 (AR-TIF2 PPI; [3]) read?
A: > 100 µM

Q: And the IC50 (AR-TIF2 PPI; [2])?
A: > 100 µM

Q: What about the GI50 [1] of the same compound?
A: > 100 µM

Q: With `Cc1nc(N)cc(N2CCOc3c(O)cc(-c4ccccc4C)cc3C2)n1` [Compound S1-2] as the compound, how does the IC50 (AR-TIF2 PPI; [3]) read?
A: 63 µM

Q: What about the GI50 [1] of the same compound?
A: 51.9 µM

Q: Which IC50 (AR-TIF2 PPI; [3]) does the source give for `Cc1ccccc1-c1cc(O)c2c(c1)CN(c1nccs1)CCO2` [Compound S1-3] here?
A: 41.8 µM

Q: And the GI50 [1]?
A: > 100 µM

Q: Which IC50 (AR-TIF2 PPI; [3]) does the source give for `Cc1nsc(NC(=O)N2CCC(Cn3ccnc3)CC2)n1` [Compound S2-7] here?
A: > 100 µM

Q: What about the IC50 (AR-TIF2 PPI; [2]) of the same compound?
A: > 100 µM

Q: What about the GI50 [1] of the same compound?
A: > 100 µM

Q: With `Cc1c(-c2ccccc2F)[nH]c2ccc(CNC(=O)c3ccc(CO)o3)cc12` [Compound S3-14] as the compound, how does the IC50 (AR-TIF2 PPI; [3]) read?
A: 16 µM

Q: And the GI50 [1]?
A: > 100 µM

Q: Which results are given for `COc1cc(-c2ccc(C)s2)cc2c1OCCN(c1nc(C(N)=O)cs1)C2` [Compound S1-5]?
A: IC50 (AR-TIF2 PPI; [3]): > 100 µM; IC50 (AR-TIF2 PPI; [2]): > 100 µM; GI50 [1]: > 100 µM

Q: For `Cc1nsc(NC(=O)N2CCC(Sc3ccccc3C)CC2)n1` [Compound S2-6], which IC50 (AR-TIF2 PPI; [3]) is on record?
A: 5.8 µM

Q: What about the IC50 (AR-TIF2 PPI; [2]) of the same compound?
A: 5.64 µM

Q: And the GI50 [1]?
A: > 100 µM

Q: What does the source list for `CC(=O)NCCC(=O)NCc1ccc2[nH]c(-c3ccccc3F)c(C)c2c1` [Compound S3-13]?
A: IC50 (AR-TIF2 PPI; [3]): 37.6 µM; GI50 [1]: > 100 µM

Q: For `Cc1c(-c2ccc(F)cc2)[nH]c2ccc(CNC(=O)c3ccc(CO)o3)cc12` [Compound S3-15], which IC50 (AR-TIF2 PPI; [3]) is on record?
A: 30.6 µM

Q: What about the GI50 [1] of the same compound?
A: > 100 µM

Q: Which IC50 (AR-TIF2 PPI; [3]) does the source give for `Cc1c(-c2ccccc2F)[nH]c2ccc(CNC(=O)CCc3cnccn3)cc12` [Compound S3-12] here?
A: 24.7 µM

Q: What about the GI50 [1] of the same compound?
A: > 100 µM

Q: With `CNC(=O)c1ccc(-c2c[nH]c3c(C)cccc23)cc1` [Compound S3-21] as the compound, how does the IC50 (AR-TIF2 PPI; [3]) read?
A: > 100 µM

Q: And the IC50 (AR-TIF2 PPI; [2])?
A: > 100 µM

Q: What about the GI50 [1] of the same compound?
A: > 100 µM

Q: Which results are given for `Cc1cccc2c(-c3ccc(O)c(F)c3)c[nH]c12` [Compound S3-17]?
A: IC50 (AR-TIF2 PPI; [3]): 8.8 µM; GI50 [1]: 99 µM

— patent US20260083751A1, “ALLOSTERIC MODULATORS OF ANDROGEN RECEPTOR COACTIVATOR RECRUITMENT FOR CRPC THERAPY” (University of Pittsburgh – Of the Commonwealth System of …, priority 2022, published 2026)
